Laboratory results: ChEMBL document CHEMBL1201862, “PubChem BioAssay data set” (2004)
Structures can show the parent of a compound that is named as a salt. Calls of active or inactive are those of the source.

These compounds were tested against T1, Heat shock factor protein 1 (Mus musculus, UniProt P38532) (assay: enhancement of HSF1-driven luciferase signal – cell-based, NIH3T3, luminescence, dose retest, confirmation (AID 435004);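 also: stress induced by proteasome inhibitor MG132 added 30 min after compound; luciferase reporter driven by HSF1 response element in NIH3T3 cells; actives raise luminescence as potentiators of the MG132 stress response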).
T1 sequence (P38532 whole entry): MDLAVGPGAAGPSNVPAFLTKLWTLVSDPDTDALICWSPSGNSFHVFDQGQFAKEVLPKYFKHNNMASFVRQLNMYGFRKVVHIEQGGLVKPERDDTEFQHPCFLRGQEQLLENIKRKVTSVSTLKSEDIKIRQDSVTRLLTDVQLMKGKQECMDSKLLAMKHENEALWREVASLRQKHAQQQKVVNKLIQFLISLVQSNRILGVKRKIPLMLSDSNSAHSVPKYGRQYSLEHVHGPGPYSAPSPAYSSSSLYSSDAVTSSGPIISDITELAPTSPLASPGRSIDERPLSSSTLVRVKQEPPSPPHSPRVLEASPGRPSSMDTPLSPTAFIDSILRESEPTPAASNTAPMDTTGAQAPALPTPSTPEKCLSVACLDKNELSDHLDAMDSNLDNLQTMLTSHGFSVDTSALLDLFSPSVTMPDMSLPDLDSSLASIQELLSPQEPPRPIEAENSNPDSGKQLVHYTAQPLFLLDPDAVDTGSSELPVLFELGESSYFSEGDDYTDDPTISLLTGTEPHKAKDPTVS
Format: functional
`O=C(C1=C[C@@H](C2CC2)C[C@@H](OCc2ccc(CO)cc2)O1)N1CCN(Cc2ccccc2)CC1` was tested, and the EC50 was > 260 µM (inactive).
`COc1ccc(/C=C/C(=O)OC2CCCN(C)C2)cc1` (configuration not stated) was tested, and the EC50 was > 260 µM (inactive).
For `CC(C)CC(NS(=O)(=O)c1ccc2c(c1)oc(=O)n2C)C(=O)NC1CCCc2ccccc21` (configuration not stated), the EC50 was > 260 µM (inactive).
`CCOC(=O)CC1NCCc2c1[nH]c1ccc(OC)cc21` (configuration not stated) was tested, and the EC50 was > 260 µM (inactive).
With `O=C1C2CCCCC2C(=O)N1Cc1ccccc1` (configuration not stated) the EC50 was > 260 µM (inactive).
In the case of `Nc1n[nH]c(SCC(=O)Nc2ccc([N+](=O)[O-])cc2Br)n1`, the EC50 is reported as > 260 µM (inactive).
With `CO/N=C/c1cc([N+](=O)[O-])ccc1Sc1ccc(C)cc1` the EC50 was > 260 µM (inactive).
With `COc1cc(C2NC(=O)NC(C)=C2C(=O)OC2CCCCC2)cc(Cl)c1O` (configuration not stated) the EC50 was > 260 µM (inactive).
For `COC(=O)C1CCN(C(=O)Cc2c(OC)ccc3cc(Br)ccc23)CC1`, the EC50 was 68.2 µM (active).
For `Cc1ccccc1-c1cc(=O)c2c(O)cccc2o1`, the EC50 was > 260 µM (inactive).
With `CC(=O)c1c(C)[nH]c(C(=O)Nc2cccc(C)n2)c1C` the EC50 was > 260 µM (inactive).

These compounds were tested against Genome polyprotein (dengue virus type 2, UniProt P29990) (assay: flavivirus cap methylation enzyme inhibition – biochemical, confirmation dose response, primary screen (AID 588689)).
Chain of Genome polyprotein (P29990 2492-3391 limits assumed): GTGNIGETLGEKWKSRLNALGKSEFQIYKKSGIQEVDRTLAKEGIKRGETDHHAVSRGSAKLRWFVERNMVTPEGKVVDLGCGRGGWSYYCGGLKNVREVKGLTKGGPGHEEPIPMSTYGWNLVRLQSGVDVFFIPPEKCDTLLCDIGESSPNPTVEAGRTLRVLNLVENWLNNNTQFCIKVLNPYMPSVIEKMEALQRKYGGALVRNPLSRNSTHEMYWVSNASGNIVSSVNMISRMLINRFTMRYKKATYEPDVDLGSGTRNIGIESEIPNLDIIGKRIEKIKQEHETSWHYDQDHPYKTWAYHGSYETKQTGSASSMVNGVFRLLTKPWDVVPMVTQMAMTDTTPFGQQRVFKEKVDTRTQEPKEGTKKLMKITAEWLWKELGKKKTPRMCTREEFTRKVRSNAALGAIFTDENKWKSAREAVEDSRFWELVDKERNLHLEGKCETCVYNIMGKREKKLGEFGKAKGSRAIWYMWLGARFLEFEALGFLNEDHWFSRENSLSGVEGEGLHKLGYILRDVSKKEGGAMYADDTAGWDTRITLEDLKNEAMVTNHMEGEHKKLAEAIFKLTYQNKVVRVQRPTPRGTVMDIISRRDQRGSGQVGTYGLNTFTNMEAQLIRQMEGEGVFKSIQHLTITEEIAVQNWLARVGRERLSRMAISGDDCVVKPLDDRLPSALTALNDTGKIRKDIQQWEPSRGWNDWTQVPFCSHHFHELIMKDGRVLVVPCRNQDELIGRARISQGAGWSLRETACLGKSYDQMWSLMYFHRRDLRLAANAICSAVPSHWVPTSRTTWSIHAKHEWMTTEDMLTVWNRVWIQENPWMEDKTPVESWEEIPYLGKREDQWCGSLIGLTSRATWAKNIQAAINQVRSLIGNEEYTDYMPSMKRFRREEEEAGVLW
Format: functional
`O=C1NC(=O)C(=Cc2ccc(N3CCN(C(=O)c4ccccc4)CC3)c([N+](=O)[O-])c2)C(=O)N1` was tested, and the IC50 was 19.8 µM (active).

What follows are compounds tested against FAD-linked sulfhydryl oxidase ALR (Homo sapiens, UniProt P55789) (assay: ALR-catalysed DTT oxidation blockers – biochemical, H2O2 detection, luminescence, cherry-pick, dose response (AID 493248)).
Chain of FAD-linked sulfhydryl oxidase ALR (P55789 whole entry): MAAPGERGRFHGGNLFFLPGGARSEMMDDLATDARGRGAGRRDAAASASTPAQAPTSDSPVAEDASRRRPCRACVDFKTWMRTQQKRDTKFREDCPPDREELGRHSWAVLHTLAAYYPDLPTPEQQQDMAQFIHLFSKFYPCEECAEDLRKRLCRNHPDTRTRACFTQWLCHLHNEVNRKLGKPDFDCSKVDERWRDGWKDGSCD
For `COc1ccccc1N1CCN(C(=O)CCNS(=O)(=O)c2cc(Br)cnc2N)CC1`, the AC50 was 11.8 µM (active).
With `NNCCc1ccccc1` [PHENELZINE SULFATE] the AC50 was 7.5 µM (active).
`COc1cccc(/C=N/N2C(=O)NC3(CCCCC3)C2=O)c1O` was tested, and the AC50 was 9.34 µM (active).
With `COc1ccccc1Nc1nc(C2(C)CCC(=O)O2)cs1` (configuration not stated) the AC50 was 4.38 µM (active).
With `COc1cccc(CNC(=O)CCNC(=O)N2CCn3c2nc2ccccc23)c1` the AC50 was 1.09 µM (active).
In the case of `Nc1n[nH]c(N2CCN(c3ccc(Cl)cc3)CC2)n1`, the AC50 is reported as 0.325 µM (active).
With `CCN(CC)Cc1c(-c2ccccc2)nc2ccc(C)cc2c1O` the AC50 was 1.77 µM (active).
`O=C(NCc1cccs1)C(=O)NCC(c1ccco1)N1CCN(c2ccccc2)CC1` (configuration not stated) was tested, and the AC50 was 0.01 µM (active).

These compounds were tested against T2, Protein skinhead-1 (Caenorhabditis elegans, UniProt P34707).
T2 sequence (P34707 whole entry): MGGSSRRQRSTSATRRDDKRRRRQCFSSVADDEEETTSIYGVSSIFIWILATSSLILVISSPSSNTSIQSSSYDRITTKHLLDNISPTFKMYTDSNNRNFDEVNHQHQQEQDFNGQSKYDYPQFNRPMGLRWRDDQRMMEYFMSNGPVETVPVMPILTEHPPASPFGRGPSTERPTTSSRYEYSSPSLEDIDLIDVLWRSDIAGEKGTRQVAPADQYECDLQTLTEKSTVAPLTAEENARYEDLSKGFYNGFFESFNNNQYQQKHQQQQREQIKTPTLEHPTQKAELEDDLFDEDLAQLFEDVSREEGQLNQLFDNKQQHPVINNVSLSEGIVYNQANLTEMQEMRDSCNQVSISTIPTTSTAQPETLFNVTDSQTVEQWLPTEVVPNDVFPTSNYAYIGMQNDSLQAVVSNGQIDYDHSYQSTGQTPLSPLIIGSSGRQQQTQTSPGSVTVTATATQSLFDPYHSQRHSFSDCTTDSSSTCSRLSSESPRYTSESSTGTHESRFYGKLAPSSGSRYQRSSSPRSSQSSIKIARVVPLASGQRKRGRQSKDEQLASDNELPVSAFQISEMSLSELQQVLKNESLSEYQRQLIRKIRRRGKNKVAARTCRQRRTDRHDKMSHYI
Format: functional
With `O=C(Nc1ccc(-c2nnc(-c3ccccc3)o2)cc1)c1ccc(Br)o1` the IC50 was 76.3 µM (inactive).
With `Cn1/c(=N/C(=O)C2CC2)sc2cc(F)cc(F)c21` the IC50 was > 100 µM (inactive).
In the case of `COc1ccc(CN2CCN(c3ccccc3F)CC2)cc1O`, the IC50 is reported as > 100 µM (inactive).
`CCN(CC)C(=O)Oc1ccc(Br)c2ccccc12` was tested, and the IC50 was > 100 µM (inactive).
In the case of `C(=C\c1nc(-c2ccncc2)no1)/c1ccccc1`, the IC50 is reported as 12.4 µM (active).
With `Cn1nnnc1SCC(=O)N1CCN(c2cccc(Cl)c2)CC1` the IC50 was > 100 µM (inactive).
In the case of `COCC(=O)NCc1ccc2c(c1)cc(C)n2C`, the IC50 is reported as > 100 µM (inactive).
